Assay results from patent publication US10434079B2, “Compositions and methods for the treatment of fatty acid metabolism disorders” (The Children's Hospital of Philadelphia, priority 2013, dated 2019).
Entries after “also recorded” stand apart in the source; their conditions may differ.

Legend:
VLCAD [1] = molecular target: T1, VLCAD (Mus musculus, UniProt P50544); assay: Quantification of S-nitrosylated VLCAD by organomercury capture in liver of treated mice; format: in vivo; parameters: Liver homogenate (final concentration of 0.03 μg/μl) or cell lysate; from tissue; host or cells: mouse liver (C57BL/6J wild-type, ob/ob, eNOS-/-); conditions: ob/ob mouse liver, from 25% S-nitrosylated VLCAD
T1 sequence (P50544 42-656): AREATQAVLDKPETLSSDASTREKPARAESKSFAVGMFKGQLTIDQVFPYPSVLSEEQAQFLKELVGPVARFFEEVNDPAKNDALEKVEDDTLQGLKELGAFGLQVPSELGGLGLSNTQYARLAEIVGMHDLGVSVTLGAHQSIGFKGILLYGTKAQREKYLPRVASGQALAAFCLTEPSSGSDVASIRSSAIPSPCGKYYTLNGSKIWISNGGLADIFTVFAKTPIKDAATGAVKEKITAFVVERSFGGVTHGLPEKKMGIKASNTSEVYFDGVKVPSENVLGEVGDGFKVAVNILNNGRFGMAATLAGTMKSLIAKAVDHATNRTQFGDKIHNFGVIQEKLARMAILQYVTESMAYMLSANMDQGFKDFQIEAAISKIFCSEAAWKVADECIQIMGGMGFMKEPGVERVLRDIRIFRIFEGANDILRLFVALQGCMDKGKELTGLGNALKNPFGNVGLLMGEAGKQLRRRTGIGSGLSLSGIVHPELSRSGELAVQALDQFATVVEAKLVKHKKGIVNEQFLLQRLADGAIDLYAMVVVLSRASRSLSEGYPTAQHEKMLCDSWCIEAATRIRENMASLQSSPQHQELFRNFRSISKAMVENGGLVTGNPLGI
Procedure: A detailed experimental procedure for the preparation and activation of columns, homogenate preparation for reaction with organic mercury resin, has been described (Doulias et al. (2010) Proc. Natl. Acad. Sci., 107:16958-16963). Three biological replicates from each organ were analyzed. […] The false identification rate was <6% for brain and <3% for all other organs. For washes, stringent conditions were selected due to the differences in lipid content among the six organs. Columns were initially washed with 50 bed volumes of 50 mM tris-HCl (pH 7.4) containing 300 mM NaCl and 0.5% SDS, followed by 50 bed volumes of the same buffer containing 0.05% SDS. Columns were washed with 50 bed volumes of 50 mM tris-HCl containing 300 mM NaCl (pH 7.4), 1% Triton X-100, and 1 M urea, followed by 50 bed volumes of the same buffer containing 0.1% Triton X-100 and 0.1 M urea. Finally, columns were washed with 200 bed volumes of water before proteins were eluted with 10 ml of 50 mM β-mercaptoethanol in water. Samples were concentrated and analyzed by gel-LC (liquid chromatography)-MS/MS analysis. For on-column digestion after the final wash with water, the columns were washed with 10 bed volumes of 0.1 M ammonium bicarbonate. Bound proteins were subjected to digestion by the addition of Trypsin Gold (1 μg/ml) (Promega) in one bed volume of 0.1 M […] in the dark for 16 hours at room temperature. […]

VLCAD [2] = molecular target: T1, VLCAD; assay: VLCAD activity assay (ferricenium) in liver homogenates from injected ob/ob mice
ob/ob mice = assay: Liver histology and liver/serum triglyceride concentrations in ob/ob mice; format: in vivo, mouse; conditions: GSNO-injected vs PBS-injected ob/ob mice
Description: Formalin-fixed liver sections were stained with Trichrome Stain Kit (Sigma) according to the manufacturer's instructions. Triglycerides were extracted from liver according to the Folch method (Folch et al. (1957) J. Biol. Chem., 226:497-509). Serum and liver triglyceride concentrations were quantified with a triglyceride quantification kit following the manufacturer's instructions (Abcam). Leptin-deficient mice develop liver steatosis spontaneously under normal chow diet starting at 4 to 5 weeks of life that is characterized by a diminished rate of palmitate oxidation and accumulation of fat droplets in the form of triglycerides within the hepatocytes (Brix et al. (2002) Mol. Genet. Metab., 75:219-226; de Oliveira et al. (2008) J. Am. Coll. Nutr., 27:299-305). […] This significant reduction in the rate of palmitoyl-CoA oxidation indicated a deficiency in mitochondrial β-oxidation of fatty acids. […] GSNO was used to deliver nitric oxide equivalents because of the extensive use of this pharmacological agent in cellular models to modify proteins by S-nitrosylation […] cellular permeability (Hara et al. (2005) Nat. Cell Biol., 7:665-674; Chung et al. (2004) Science 304:1328-1331). […] Moreover, the restoration of palmitoyl-CoA oxidation in GSNO-injected ob/ob mice was associated with a significant reduction of the concentration of liver triglycerides. […]

SMILES: N[C@@H](CCC(=O)N[C@@H](CSN=O)C(=O)NCC(=O)O)C(=O)O [GSNO, S-nitrosoglutathione]
- increase of catalytic efficiency (kcat/KM) of S-nitrosylated VLCAD vs unmodified protein (VLCAD [1]): 29 fold
- acyl dehydrogenase-mediated oxidation of palmitoyl-CoA (VLCAD [2]; GSNO-treated ob/ob mouse liver): increase
- apparent KM in PBS-injected ob/ob homogenates relative to wild-type and GSNO-injected ob/ob mice (VLCAD [2]; liver homogenates): more than fivefold higher
- fat deposits in liver slices (trichrome histology) (ob/ob mice): diminished fatty acid deposition; also recorded: fewer fat deposits
